The text below walks through data of patent US11780830B2, “Triazolone derivatives or salts thereof and pharmaceutical compositions comprising the same” (YUHAN CORPORATION, priority 2018, dated 2023).

Common to all, as to format: biochemical
In test [1] the target is T1, recombinant human DAO (diamine oxidase) (Homo sapiens, UniProt P19801).
T1 construct: purchased R&D systems
T1 sequence (P19801 20-751): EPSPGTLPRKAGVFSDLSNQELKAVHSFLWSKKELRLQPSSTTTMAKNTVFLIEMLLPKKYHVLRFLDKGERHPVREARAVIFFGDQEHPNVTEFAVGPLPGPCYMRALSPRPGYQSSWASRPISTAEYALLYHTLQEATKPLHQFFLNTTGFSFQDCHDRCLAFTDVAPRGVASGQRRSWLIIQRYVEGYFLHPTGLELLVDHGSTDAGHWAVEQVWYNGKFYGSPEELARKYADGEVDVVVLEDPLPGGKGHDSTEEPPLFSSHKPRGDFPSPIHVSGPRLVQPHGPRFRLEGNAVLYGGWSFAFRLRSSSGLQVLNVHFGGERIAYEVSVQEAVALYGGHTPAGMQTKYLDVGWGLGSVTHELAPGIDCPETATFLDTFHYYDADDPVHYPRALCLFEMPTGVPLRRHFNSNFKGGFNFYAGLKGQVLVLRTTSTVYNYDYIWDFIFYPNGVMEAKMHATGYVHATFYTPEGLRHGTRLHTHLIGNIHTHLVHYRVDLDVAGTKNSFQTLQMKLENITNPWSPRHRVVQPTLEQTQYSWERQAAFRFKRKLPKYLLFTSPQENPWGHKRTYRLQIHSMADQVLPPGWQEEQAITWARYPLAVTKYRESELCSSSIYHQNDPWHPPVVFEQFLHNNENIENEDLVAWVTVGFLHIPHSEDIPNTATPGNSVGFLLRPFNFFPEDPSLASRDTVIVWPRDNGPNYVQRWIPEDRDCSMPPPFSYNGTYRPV
Description: Activity on recombinant human DAO, method similar to the VAP-1 assay. To be noted: substrate 1 mM putrescine; read-out: Inhibitory Activity (IC50, nM) DAO. The method in brief: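 Inhibition of recombinant human diamine oxidase (DAO, R&D systems) was assessed by the same approach as the VAP-1 assay, using 1 mM putrescine as substrate. Hydrogen peroxide formed was detected through an HRP-coupled Amplex Red reaction yielding fluorescent resorufin, read at 544 nm excitation and 590 nm emission. IC50 values came from four-parameter logistic fitting in GraphPad Prism.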

Test [2] deals with T2, recombinant human MAO-B (monoamine oxidase-B) (Homo sapiens, UniProt P27338).
T2 construct: purchased Sigma-Aldrich
T2 sequence (P27338 1-520): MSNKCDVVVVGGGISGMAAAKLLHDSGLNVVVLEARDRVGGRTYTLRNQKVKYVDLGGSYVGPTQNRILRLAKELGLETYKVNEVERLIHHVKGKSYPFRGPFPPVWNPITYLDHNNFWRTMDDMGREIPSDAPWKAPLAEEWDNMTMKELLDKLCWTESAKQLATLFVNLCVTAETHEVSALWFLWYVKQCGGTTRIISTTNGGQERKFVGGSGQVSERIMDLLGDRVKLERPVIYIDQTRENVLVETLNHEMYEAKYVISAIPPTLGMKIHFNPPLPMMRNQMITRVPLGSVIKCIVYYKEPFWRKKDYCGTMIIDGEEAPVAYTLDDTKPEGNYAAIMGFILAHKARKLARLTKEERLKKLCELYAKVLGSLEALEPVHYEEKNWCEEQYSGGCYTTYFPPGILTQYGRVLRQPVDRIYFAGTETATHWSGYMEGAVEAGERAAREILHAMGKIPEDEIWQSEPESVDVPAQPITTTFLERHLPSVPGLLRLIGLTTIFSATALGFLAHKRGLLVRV
Description: Activity on recombinant human MAO-B, method similar to the VAP-1 assay. The conditions noted are these: substrate 1 mM benzylamine; read-out: Inhibitory Activity (IC50, nM) MAO-B. The essentials:
(§1)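 First, serially diluted compounds were incubated with recombinant enzyme in 50 mM sodium phosphate, pH 7.4, for 30 min at 37° C. Next, Amplex Red (200 uM), HRP (1 U/mL) and tyramine (0.5 mM, MAO-A) or benzylamine (1 mM, MAO-B) were added. Then fluorescence was monitored over 1-2 h and IC50 fitted.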

Test [3] addresses T3, recombinant human MAO-A (monoamine oxidase-A) (Homo sapiens, UniProt P21397).
T3 construct: purchased Sigma-Aldrich
T3 sequence (P21397 1-527): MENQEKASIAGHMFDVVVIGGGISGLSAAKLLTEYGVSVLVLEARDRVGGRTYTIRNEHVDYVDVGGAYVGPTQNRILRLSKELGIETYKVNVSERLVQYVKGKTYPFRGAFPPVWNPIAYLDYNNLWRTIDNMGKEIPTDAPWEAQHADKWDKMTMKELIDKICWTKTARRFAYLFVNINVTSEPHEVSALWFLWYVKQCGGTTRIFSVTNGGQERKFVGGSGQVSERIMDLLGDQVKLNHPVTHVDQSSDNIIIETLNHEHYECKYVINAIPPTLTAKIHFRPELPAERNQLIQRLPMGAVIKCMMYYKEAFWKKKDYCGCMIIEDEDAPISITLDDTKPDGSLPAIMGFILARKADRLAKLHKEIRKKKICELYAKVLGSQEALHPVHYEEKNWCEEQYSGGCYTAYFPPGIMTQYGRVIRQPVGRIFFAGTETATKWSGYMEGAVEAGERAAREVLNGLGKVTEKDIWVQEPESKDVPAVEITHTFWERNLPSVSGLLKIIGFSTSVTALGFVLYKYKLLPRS
Description: Activity on recombinant human MAO-A, method similar to the VAP-1 assay. The conditions noted are these: substrate 0.5 mM tyramine; read-out: Inhibitory Activity (IC50, nM) MAO-A. The essentials:
as §1

In the next test the target is T4, recombinant human VAP-1 (Homo sapiens, UniProt Q16853).
T4 construct: purchased R&D systems
T4 sequence (Q16853 1-763): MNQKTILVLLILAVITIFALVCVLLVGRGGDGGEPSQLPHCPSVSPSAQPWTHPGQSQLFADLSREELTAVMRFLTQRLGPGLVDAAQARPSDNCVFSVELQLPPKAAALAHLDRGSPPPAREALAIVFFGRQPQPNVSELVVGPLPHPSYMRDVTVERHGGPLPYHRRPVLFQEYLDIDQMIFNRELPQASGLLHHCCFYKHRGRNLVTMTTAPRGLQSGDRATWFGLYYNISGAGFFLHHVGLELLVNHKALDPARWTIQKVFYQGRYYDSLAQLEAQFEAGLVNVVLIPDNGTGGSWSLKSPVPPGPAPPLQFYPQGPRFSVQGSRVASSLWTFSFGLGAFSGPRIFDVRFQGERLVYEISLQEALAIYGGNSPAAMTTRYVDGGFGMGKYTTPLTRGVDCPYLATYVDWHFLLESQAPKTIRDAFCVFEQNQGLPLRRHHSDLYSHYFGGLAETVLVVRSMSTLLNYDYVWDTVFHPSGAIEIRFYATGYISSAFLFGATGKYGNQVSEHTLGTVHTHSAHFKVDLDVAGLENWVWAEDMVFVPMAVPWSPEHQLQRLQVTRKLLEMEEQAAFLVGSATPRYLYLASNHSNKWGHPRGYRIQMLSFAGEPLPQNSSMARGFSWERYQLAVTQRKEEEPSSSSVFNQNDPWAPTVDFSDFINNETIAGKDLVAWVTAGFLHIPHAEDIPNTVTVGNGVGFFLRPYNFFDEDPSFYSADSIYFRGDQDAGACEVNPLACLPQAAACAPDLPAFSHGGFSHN
Put plainly: Activity on recombinant human VAP-1, HRP-coupled Amplex Red hydrogen peroxide assay. To be noted: substrate 1 mM benzylamine; compound incubated with enzyme at 37° C. for 30 minutes; pH 7.4; read-out: Inhibitory Activity (IC50, nM) human VAP-1. The method in brief:
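H2O2 generation from 1 mM benzylamine was coupled via 1 U/mL HRP to 200 uM Amplex Red; inhibitors, serially diluted 1:3 over 8 points with under 1% final DMSO, had been preincubated 30 min at 37 °C. IC50 from percentage drop in rate.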

Where a name gives a salt, the structure may show the parent alone.

Broadly, the IC50 is the concentration at which inhibition is half-maximal. Take `NC/C(=C\F)Cn1ncn(CCc2ccc(-c3ccc(C(F)(F)F)nc3)s2)c1=O` [Example 217, 2-[(2E)-2-(aminomethyl)-3-fluoroprop-2-en-1-yl]-4-(2-{5-[6-(trifluoromethyl)pyridin-3-yl]thiophen-2-yl}ethyl)-2,4-dihydro-3H-1,2,4-triazol-3-one]: the half-inhibitory concentration (IC50) in test [1] is 61 nM; in test [2], 6900 nM; in test [3], over 100000 nM; on recombinant human VAP-1, 0.7 nM.
In the same order, the values of `NC/C(=C\F)Cn1ncn(Cc2ccc(-c3ccc4c(c3)COC(=O)N4)s2)c1=O` [Example 101, 6-[5-(1-[(2E)-2-(aminomethyl)-3-fluoroprop-2-en-1-yl]-5-oxo-1,5-dihydro-4H-1,2,4-triazol-4-ylmethyl)thiophen-2-yl]-1,4-dihydro-2H-3,1-benzoxazin-2-one hydrochloride] are 900 nM, 540 nM, over 100000 nM and 0.2 nM.
Regarding `Cn1nc(C(F)(F)F)cc1-c1ccc(Cn2cnn(C/C(=C/F)CN)c2=O)s1` [Example 162, 2-[(2E)-2-(aminomethyl)-3-fluoroprop-2-en-1-yl]-4-({5-[1-methyl-3-(trifluoromethyl)-1H-pyrazol-5-yl]thiophen-2-yl}methyl)-2,4-dihydro-3H-1,2,4-triazol-3-one], the concentration for half-maximal inhibition (IC50) in test [1] was 250 nM; in test [2] it was 250 nM; in test [3], over 100000 nM; at recombinant human VAP-1 it was 3.2 nM.
Regarding `NC/C(=C\F)Cn1ncn(Cc2ccc(-c3ccc4c(c3)NC(=O)OC4)s2)c1=O` [Example 100, 7-[5-(1-[(2E)-2-(aminomethyl)-3-fluoroprop-2-en-1-yl]-5-oxo-1,5-dihydro-4H-1,2,4-triazol-4-ylmethyl)thiophen-2-yl]-1,4-dihydro-2H-3,1-benzoxazin-2-one hydrochloride], the 50% inhibitory concentration (IC50) is 140 nM in test [1], 810 nM in test [2], over 100000 nM in test [3] and 0.1 nM at recombinant human VAP-1.
In the same order, the values of `NC/C(=C\F)Cn1ncn(Cc2ccc(-c3cnc4scnc4c3)s2)c1=O` [Example 64, 2-[(2E)-2-(aminomethyl)-3-fluoroprop-2-en-1-yl]-4-[5-([1,3]thiazolo[5,4-b]pyridin-6-yl)thiophen-2-yl]methyl-2,4-dihydro-3H-1,2,4-triazol-3-one hydrochloride] are 110 nM, 2200 nM, 6700 nM and 0.7 nM.
As to `NC/C(=C\F)Cn1ncn(Cc2ccc(-c3cnc4c(c3)CCC(=O)N4)s2)c1=O` [Example 148, 6-[5-({1-[(2E)-2-(aminomethyl)-3-fluoroprop-2-en-1-yl]-5-oxo-1,5-dihydro-4H-1,2,4-triazol-4-yl}methyl)thiophen-2-yl]-3,4-dihydro-1,8-naphthyridin-2(1H)-one], the IC50 in test [1] was 420 nM; in test [2], 24000 nM; in test [3], over 100000 nM; at recombinant human VAP-1 it was 0.4 nM.
Consider `CN(C)c1cccc(-c2ccc(Cn3cnn(C/C(=C/F)CN)c3=O)s2)c1` [Example 4, 2-[(2E)-2-(aminomethyl)-3-fluoroprop-2-en-1-yl]-4-(5-[3-(dimethylamino)phenyl]thiophen-2-ylmethyl)-2,4-dihydro-3H-1,2,4-triazol-3-one hydrochloride], for which the IC50 in test [1] was found to be 9500 nM; in test [2] it was 50 nM; in test [3], 35000 nM; on recombinant human VAP-1, 4.6 nM.
Turning to `NC/C(=C\F)Cn1ncn(Cc2ccc(-c3cc4c(cc3F)OCC(=O)N4)s2)c1=O` [Example 93, 6-[5-(1-[(2E)-2-(aminomethyl)-3-fluoroprop-2-en-1-yl]-5-oxo-1,5-dihydro-4H-1,2,4-triazol-4-ylmethyl)thiophen-2-yl]-7-fluoro-2H-1,4-benzoxazin-3(4H)-one hydrochloride], the half-inhibitory concentration (IC50) in test [1] was found to be 230 nM; in test [2], 1100 nM; in test [3], 54000 nM; at recombinant human VAP-1, 0.4 nM.
Take `CN(C)c1ncc(-c2ccc(Cn3cnn(C/C(=C/F)CN)c3=O)s2)cc1F` [Example 173, 2-[(2E)-2-(aminomethyl)-3-fluoroprop-2-en-1-yl]-4-({5-[6-(dimethylamino)-5-fluoropyridin-3-yl]thiophen-2-yl}methyl)-2,4-dihydro-3H-1,2,4-triazol-3-one]: the IC50 in test [1] was 1200 nM; in test [2], 2000 nM; in test [3], over 100000 nM; on recombinant human VAP-1, 2.1 nM.
Consider `NC/C(=C\F)Cn1ncn(Cc2ccc(-c3ccc4[nH]ncc4c3)s2)c1=O` [Example 63, 2-[(2E)-2-(aminomethyl)-3-fluoroprop-2-en-1-yl]-4-[5-(1H-indazol-5-yl)thiophen-2-yl]methyl-2,4-dihydro-3H-1,2,4-triazol-3-one hydrochloride], for which the IC50 in test [1] turned out to be 1200 nM; in test [2], 380 nM; in test [3] it was 67000 nM; on recombinant human VAP-1 it was 0.9 nM.
